The record followed here is patent publication US5623080A, “Fluorone and pyronin Y derivatives” (Spectra Group Limited, Inc., priority 1995, dated 1997).

The nature of data set [1]: absorption wavelength (λmax) and extinction (ε). Type of data set: physicochemical. The conditions noted are these: for λmax in EtOH (first value) / ε (first value): Table 1, EtOH; for ε (first value): at first λmax, in M-1cm-1 (unit assumed); for λmax: synthesis example.
The nature of the next data set: solubility. Type of data set: physicochemical.
The nature of another data set: pencil hardness. The protocol:
(§1) To a resin formulation consisting of 15 parts urethane diacrylate, 15 parts DPHPA, 20 parts TPGDA and 40 parts TMPTA was added DIDMA, initiator and (4-octyloxyphenyl)phenyliodonium hexafluoroantimonate (OPPI). The samples were coated to a thickness of 15 microns and exposed to a 75 W tungsten halogen dental lamp (focused through an optical fiber) at a distance of 0.75 inch at which the Light intensity was about 0.40 W/cm^2. The molar ratios are indicative of the amounts of fluorone to onium salt to amine coinitiator. The double bond conversion was determined by FTIR spectroscopy. The pencil hardness of a given test sample is measured by holding a pencil at a 45° angle to the sample and drawing across it towards the person testing it. Using the pencils in an order from softest to hardest, the first pencil that scratches the surface is assigned as the pencil hardness of the sample. The pencil hardness scale is as follows from softest to hardest: 4B, 3B, 2B, B, HB, H, 2H, 3H, 4H, 6H. For instance, if a 2H pencil is the first pencil to scratch the surface then the pencil hardness is 2H.
At the extreme ends of the scale, it is impossible to determine the actual pencil hardness. […] Likewise, if the 4B pencil scratches the sample, the only assignment that can be made is <4B, unless it is a lot softer than 4B in which case a <<4B can be assigned. A pencil hardness of 4H is generally considered satisfactory. Pencil hardness data was greater than 6H after 30 seocnd exposure for all samples except for the control samples without amine (1:2:0). The controls were all less than 4B an 0.05 wt %, 0.10 wt %, and 0.15 wt %.
Photosensitive compositions were prepared from the resin formulation of Example 35 containing 1% NPG and 0.05% DIBF or 0.05% DIEF. The samples were exposed under the conditions shown in the following table and pencil hardness was measured.
Diphenyliodonium hexafluoroantimonate was added to DIBF samples.
Samples were also prepared using 1% DIDMA in addition to the fluorone for a 20:1 weight ratio.
Samples were also prepared from the same resin formulation containing 0.1% DIBF in addition to the coinitiator listed in the following Table 9 with the exposure condition and pencil hardness results shown.
Using the resin formulation of Example 36, photosensitive compositions were prepared using TIHF, DIDMA and OPPI at a concentration of 0.21% and in the molar ratios shown in Table 10 which follows. Exposure was conducted with the dental lamp at a distance of 1 inch from the sample to provide an intensity of about 0.26 W/cm^2. Molar ratios are fluorone:onium salt:amine.

A short description of the next data set: depth of cure. An excerpt: One of the advantages of the fluorone dye photoinitiators in this invention is the depth of the cure that is obtainable. This is in contrast to UV photoinitators that causes a "screening" effect which prevents the UV light from penetrating beyond a certain […] depth, usually several millimeters. By contrast, the fluorone dye bleaches as it photoinitiates and is concommitantly converted into a non-visible absorbing species thus allowing more visible light to penetrate which continues the cure. This cascading bleaching effect permits substantial depth of cure which can easily reach several inches.
An acrylate monomer mixture was composed of 15 parts urethane diacrylate, 20 parts TPGPA, 40 parts TMPTA and 15 parts DPHPA, and a 20 to 1 weight ratio of NPG coinitiator to DIEF or DIBF fluorone dye. For dye concentrations of 0.01, 0.05 and 0.1 weight, all the formulations cured to a depth of 3 cm in 30 seconds when exposed to a 350 watt tungsten halogen light which provides about 500 mw/cm^2 irradiance. When the irradiance was increased to about 2 watts/cm^2 cure speed was shortened to 5 seconds for the same depth.
An acrylate mixture was composed of 60% urethane diacrylate, 30% DPHPA, 10% BDDA, and 0.05 weight % of DIEF or DIBF fluorone dye with 2 weight % of DIDMA. The formulation cure to a depth greater than 1 cm in 10 seconds when exposed to a 75 watt tungsten halogen lamp which provided an irradiance of about 260 mw/cm^2.
An acrylate mixture was composed of 33% TMPTA, 33% DPHPA, 33% Epoxy acrylate, and 2% of DIDMA with either 0.01, 0.05 or 0.1 weight % of DIEF. All samples cured to a depth greater than 1 cm in 10 seconds when exposed to a 75 watt tungsten halogen.
An acrylate mixture was composed of 70% urethane diacrylate, 5% DPHPA, 25% BDDA, and 2% DIDMA with either 0.01, 0.03 or 0.1 weight % DIEF. The 0.01 and 0.03 samples cured after 2 passes through a 300 watt per inch medium pressure mercury arc lamp at a speed of 50 feet/minute to a depth greater than 3 mm. The 0.1 sample cured to a depth of greater than 1.5 mm.

Data set [2] can be described thus: double bond conversion (C=C% Conversion) by FTIR. The protocol: as §1
Data set [3] can be described thus: oxidation and reduction potentials (Eox, Ered). Format: physicochemical. Conditions: in V (unit assumed). An excerpt:
(§2) In Table 2 below, the properties of the foregoing initiators are shown: […]

The next data set in a line: pKa. Format: physicochemical.
From the text: as §2

A further data set can be described thus: fluorescence (λf, φf). Format: physicochemical. From the text: In Table 2 below, the properties of the foregoing initiators are shown:
Entries in the table are in the solvents according to the following order.

A further data set in a line: film speed. The conditions noted are these: addition of coinitiator to onium salt composition. An excerpt: Examples of onium salts useful in the invention can be found in published European Patent Application 0 408227A1. The preferred onium salts for use in the invention are diphenyliodonium salts such as diphenyliodonium hexafluorophosphate, arsenates, antimonates, etc., and, more particularly,hexafluoro-antimonate. Onium salts of simple anions such as chlorides, bromides, etc. are also useful in free radical polymerizable compositions. A particularly preferred onium salt is OPPI below. Addition of a coinitiator such as NPG improves film speed, pencil hardness and double bond conversion. A particularly preferred initiator system is a combination of an iodofluorone in accordance with the invention such as TIHF or DIBF, an amine such as NPG or DIDMA and an onium salt. A preferred molar ratio of fluorone to onium salt to amine is about 1:2:3. […] These onium salt formulations are illustrated in the following Examples 35-37.

Setting [4] is: addition of coinitiator to onium salt composition.

Structures are written as SMILES. Like-named read-outs stand apart in the source and are kept apart here.

For the compound `CCCCCCCC(=O)c1cc2cc3cc(I)c(=O)c(I)c-3oc2c(I)c1O` [Compound 17, 3-hydroxy-4,5,7-triiodo-2octanoyl-6-fluorone], in data set [1], the “λmax in EtOH (first value)” value was found to be 538 and the “ε (first value)” value is 84,800. In “solubility”, the “solubility in CDCl3” value was “almost no solubility”. Moreover, the “solubility in DMSO” value in “solubility” (DMSO) is reported as “poor solubility”.
In the case of `CCCCCCCC(=O)c1cc2c(C#N)c3cc(I)c(=O)c(I)c-3oc2c(I)c1O` [Compound 18, 9-cyano-3-hydroxy-4,5,7-triiodo-2-octanoyl-6-fluorone], in data set [1], the “λmax in EtOH (first value)” value is 636 and the “ε (first value)” value is reported as 17,000. This compound also returned an absorption wavelength in data set [1] (comparison) of 638 nm. Besides, the “solubility in CDCl3” value in “solubility” was “very good solubility”.
As to `CCOc1ccc2cc3cc(I)c(=O)c(I)c-3oc2c1` [DIEF, 5,7-diiodo-3-ethoxy-6-fluorone], the Pencil hardness is recorded as 3B in “pencil hardness” (0.05 wt. %, 1% DIDMA, Dental Lamp, Air, 60 sec); 3B in “pencil hardness” (0.05 wt. %, 1% DIDMA, Dental Lamp, No Air, 30 sec); 2B in the data set “pencil hardness” (0.05 wt. %, 1% DIDMA, Dental Lamp, No Air, 60 sec); 2B in the data set “pencil hardness” (0.05 wt. %, 1% DIDMA, Fusion (Q bulb), Air, 10 ft/min); above 4B in “pencil hardness” (0.05 wt. %, 1% DIDMA, Fusion (Q bulb), Air, 20 ft/min); 2B in the data set “pencil hardness” (0.05 wt. %, 1% NPG, Dental Lamp, Air, 60 sec). In addition, the Pencil hardness is recorded as below 4B in “pencil hardness” (0.05 wt. %, 1% NPG, Dental Lamp, No Air, 10 sec); 2H in the data set “pencil hardness” (0.05 wt. %, 1% NPG, Dental Lamp, No Air, 30 sec); 3H in “pencil hardness” (0.05 wt. %, 1% NPG, Dental Lamp, No Air, 60 sec); above 6H in “pencil hardness” (0.05 wt. %, 1% NPG, Fusion (Q bulb), Air, 10 ft/min); 3H in “pencil hardness” (0.05 wt. %, 1% NPG, Fusion (Q bulb), Air, 20 ft/min); 3B in the data set “pencil hardness” (0.05 wt. %, 1% NPG, Overhead Proj., Air, 60 sec). Besides, the Pencil hardness in “pencil hardness” (0.05 wt. %, 1% NPG, Overhead Proj., No Air, 60 sec) stood at 3H. For the same compound, the “λmax in EtOH (first value)” value in data set [1] was 470. Besides, in data set [1], the “ε (first value)” value is 21,100. Besides, the depth of cure result is on record as “greater than 3 mm” in “depth of cure” (0.01 and 0.03 weight %, 2 passes, 300 watt per inch medium pressure mercury arc lamp, 50 feet/minute, 2% DIDMA); “greater than 1.5 mm” in “depth of cure” (0.1 weight %, 300 watt per inch medium pressure mercury arc lamp, 50 feet/minute, 2% DIDMA); “greater than 1 cm” in “depth of cure” (10 seconds, 75 watt tungsten halogen, about 260 mw/cm^2, 0.05 weight % dye, 2 weight % DIDMA, 60% urethane diacrylate, 30% DPHPA, 10% BDDA); “greater than 1 cm” in “depth of cure” (10 seconds, 75 watt tungsten halogen, 0.01, 0.05 or 0.1 weight %, 2% DIDMA, TMPTA/DPHPA/Epoxy acrylate); 3 cm in “depth of cure” (30 seconds, 350 watt tungsten halogen, about 500 mw/cm^2, dye 0.01, 0.05 and 0.1 weight, NPG 20 to 1). In addition, the “cure time for the same depth (3 cm)” value in the data set “depth of cure” (about 2 watts/cm^2, NPG 20 to 1) came out at 5 s. In addition, the “C=C% Conversion” value in [2] (0.05 wt %, (1:2:3), DIDMA, 30 sec) came to 40%.
As to `O=c1ccc2cc3ccc(O)cc3oc-2c1` [HF, 3-Hydroxy-6-fluorone], in [1], the “λmax in EtOH (first value)” value came to 504 and the “ε (first value)” value came to 24700. This compound yielded a λmax in [1] (methanol) of 500 nm. Besides, in [3], the Eox is given as 1.34 and the Ered entry is “-.99”. For the same compound, the pKa in “pKa” was 5.97. In addition, the φf result in the data set “fluorescence (λf, φf)” (10^-7 M (footnote c)) is “.95”.
Consider `O=C(O)CNc1ccccc1` [NPG, N-phenylglycine, reference compound], for which, in the data set “pencil hardness” (setting [4]), the Pencil hardness entry is “improves”. Also, in the data set “film speed”, the film speed entry was “improves”. Moreover, the double bond conversion result in data set [2] (setting [4]) is reported as “improves”.
For the compound `O=c1c(Br)cc2cc3cc(Br)c(O)c(Br)c3oc-2c1Br` [TBHF, 3-hydroxy-2,4,5,7-tetrabromo-6-fluorone], in data set [1], the “λmax in EtOH (first value)” value turned out to be 530 and the “ε (first value)” value stood at 39300. In addition, the λmax in data set [1] (methanol) amounted to 526 nm. Also, in data set [3], the Eox came out at 1.099 and the Ered entry is given as “-.95”. This compound yielded a pKa in “pKa” of 3.28. The φf result in “fluorescence (λf, φf)” was “.52”. The same compound returned a λf in the data set “fluorescence (λf, φf)” (MeOH) of 539 nm.
Take `O=c1c(I)cc2cc3cc(I)c(O)c(I)c3oc-2c1I` [TIHF, 3-hydroxy-2,4,5,7-tetraiodo-6-fluorone]: the “Pencil hardness” value is reported as 4H in the data set “pencil hardness” (0.21%, TIHF:OPPI:DIDMA (1:1:0), dental lamp 60 sec.); 5-6H in the data set “pencil hardness” (0.21%, TIHF:OPPI:DIDMA (1:1:1), dental lamp 60 sec.); above 6H in “pencil hardness” (0.21%, TIHF:OPPI:DIDMA (1:1:5), dental lamp 60 sec.); above 6H in the data set “pencil hardness” (0.21%, TIHF:OPPI:DIDMA (1:1:10), dental lamp 60 sec.); above 6H in the data set “pencil hardness” (0.21%, TIHF:OPPI:DIDMA (1:1:33), dental lamp 60 sec.); 5-6H in the data set “pencil hardness” (0.21%, TIHF:OPPI:DIDMA (1:2:0), dental lamp 60 sec.). In addition, the “Pencil hardness” value was above 6H in “pencil hardness” (0.21%, TIHF:OPPI:DIDMA (1:2:5), dental lamp 60 sec.); above 6H in the data set “pencil hardness” (0.21%, TIHF:OPPI:DIDMA (1:2:10), dental lamp 60 sec.); above 6H in “pencil hardness” (0.21%, TIHF:OPPI:DIDMA (1:2:33), dental lamp 60 sec.); 5-6H in “pencil hardness” (0.21%, TIHF:OPPI:DIDMA (1:5:)), dental lamp 60 sec.); 5-6H in “pencil hardness” (0.21%, TIHF:OPPI:DIDMA (1:10:0), dental lamp 60 sec.). Moreover, the “λmax in EtOH (first value)” value in [1] turned out to be 536. Further, the “ε (first value)” value in data set [1] is reported as 91200. The λmax in data set [1] (ethanol) is listed as 536 nm. For the same compound, the “depth of cure results” value in “depth of cure” (other fluorone dyes) is “have also been observed”. Besides, the Eox in data set [3] worked out at 1.04. Also, the Ered entry in data set [3] is on record as “-.95”. In addition, the pKa in “pKa” is recorded as 4.08. Moreover, the φf result in “fluorescence (λf, φf)” is “.13”.
